Results reported in patent US9457033B2, “Steroid alkaloids and uses thereof as antimicrobial agents against electron transport-deficient microbes and as potentiators for antimicrobial agents against pathogenic bacteria” (priority 2011, dated 2016).
≈ marks a conversion by molar mass, not a printed value. Like-named read-outs stand apart in the source and are kept apart here.

Legend:
S. aureus ATCC 29213 [1] = assay: Time-kill experiments, aminoglycoside alone or with tomatidine (FIGS. 8-10); conditions: alone at ≧1×MIC (1 μg/ml); regrowth observed within 24 h; FIG. 9
S. aureus MA078038 = assay: MIC, microdilution in CAMHB 24 h; format: cell-based, Staphylococcus aureus; conditions: for MIC: Staphylococcus aureus
S. aureus Newbould = assay: MIC, microdilution in CAMHB 24 h; format: cell-based, Staphylococcus aureus; conditions: Newbould; for MIC: Staphylococcus aureus
S. aureus SHY97-3906 = assay: MIC, microdilution in CAMHB 24 h; format: cell-based, Staphylococcus aureus; conditions: for MIC: Staphylococcus aureus, SHY973906
S. aureus Mu50 = assay: MIC, microdilution in CAMHB 24 h; format: cell-based, Staphylococcus aureus; conditions: for MIC: Staphylococcus aureus
S. aureus CF6B-L = assay: MIC, microdilution in CAMHB 24 h; format: cell-based, Staphylococcus aureus; conditions: CF6B-L; for MIC: Staphylococcus aureus, CF6BL
S. aureus CF07-L = assay: MIC, microdilution in CAMHB 24 h; format: cell-based, Staphylococcus aureus; conditions: CF07-L; for MIC: Staphylococcus aureus, CF07L
S. aureus CF7A-L = assay: MIC, microdilution in CAMHB 24 h; format: cell-based, Staphylococcus aureus; conditions: CF7A-L; for MIC: Staphylococcus aureus
S. aureus ATCC 29213 [2] = assay: MIC, microdilution in CAMHB 24 h, with or without tomatidine/compound; format: cell-based, Staphylococcus aureus; conditions: for MIC: Staphylococcus aureus
S. aureus CF4B-L = assay: MIC, microdilution in CAMHB 24 h; format: cell-based, Staphylococcus aureus; conditions: CF4B-L; for MIC: Staphylococcus aureus, CF4BL
S. aureus Sa228c = assay: MIC, microdilution in CAMHB 24 h; format: cell-based, Staphylococcus aureus; conditions: for MIC: Staphylococcus aureus, SA228C
S. aureus ATCC BAA-41 = assay: MIC, microdilution in CAMHB 24 h; format: cell-based, Staphylococcus aureus; conditions: for MIC: Staphylococcus aureus
S. aureus ATCC 29213 [3] = assay: Checkerboard assay, aminoglycoside and tomatidine; format: cell-based, Staphylococcus aureus; conditions: for MIC: Staphylococcus aureus, ATCC29213, checkerboard
S. aureus CF35A-L = assay: MIC, microdilution in CAMHB 24 h; format: cell-based, Staphylococcus aureus; conditions: CF35A-L; for MIC: Staphylococcus aureus
S. aureus ATCC 43300 = assay: MIC, microdilution in CAMHB 24 h; format: cell-based, Staphylococcus aureus; conditions: ATCC 43300; for MIC: Staphylococcus aureus
S. aureus CF2A-L = assay: MIC, microdilution in CAMHB 24 h; format: cell-based; conditions: CF2A-L; for MIC: Staphylococcus aureus, CF2AL
S. aureus 8325-4 = assay: MIC, microdilution in CAMHB 24 h; format: cell-based, Staphylococcus aureus; conditions: 8325-4; for MIC: Staphylococcus aureus, 83254
S. aureus Newman = assay: MIC, microdilution in CAMHB 24 h; format: cell-based, Staphylococcus aureus; conditions: Newman; for MIC: Staphylococcus aureus
S. aureus CF8E-L = assay: MIC, microdilution in CAMHB 24 h; format: cell-based, Staphylococcus aureus; conditions: CF8E-L; for MIC: Staphylococcus aureus, CF8EL
[4] = 8 μg/ml of tomatidine, read-out: MIC +TO
[5] = absence of tomatidine, read-out: MIC −TO
[6] = Human (CF lungs), read-out: MIC
[7] = Human (CF lungs), MRSA, read-out: MIC

NC[C@H]1O[C@H](O[C@H]2[C@H](O)[C@@H](O[C@H]3O[C@H](CO)[C@@H](O)[C@H](N)[C@H]3O)[C@H](N)C[C@@H]2N)[C@H](N)C[C@@H]1O [Tobramycin, tobramycin]
time-kill activity alone (S. aureus ATCC 29213 [1]): bactericidal
Fold (−TO/+TO) (S. aureus MA078038; MA078038, 8 μg/ml of tomatidine): 4-8 fold
MIC (S. aureus MA078038; MA078038, aph(3′)-IIIa, 8 μg/ml of tomatidine, read-out: MIC +TO): 0.06 to 0.12 µg/mL (≈ 0.128 to 0.257 µM)
MIC (S. aureus MA078038; MA078038, aph(3′)-IIIa, absence of tomatidine, read-out: MIC −TO): 0.5 µg/mL (≈ 1.07 µM)
MIC (S. aureus MA078038; MA078038, Human (CA), MRSA, read-out: MIC): 0.5 µg/mL (≈ 1.07 µM)
Fold (−TO/+TO) (S. aureus Newbould; 8 μg/ml of tomatidine): 8 fold
MIC (S. aureus Newbould; [4]): 0.06 to 0.12 µg/mL (≈ 0.128 to 0.257 µM)
MIC (S. aureus Newbould; Cow (mastitis), read-out: MIC): 0.5 to 1 µg/mL (≈ 1.07 to 2.14 µM)
MIC (S. aureus Newbould; [5]): 0.5 to 1 µg/mL (≈ 1.07 to 2.14 µM)
Fold (−TO/+TO) (S. aureus SHY97-3906; SHY-3906, 8 μg/ml of tomatidine): 8 fold
MIC (S. aureus SHY97-3906; SHY97-3906, Cow (mastitis), read-out: MIC): 0.25 µg/mL (≈ 0.535 µM)
MIC (S. aureus SHY97-3906; SHY-3906, 8 μg/ml of tomatidine, read-out: MIC +TO): 0.03 µg/mL (≈ 0.0642 µM)
MIC (S. aureus SHY97-3906; SHY-3906, absence of tomatidine, read-out: MIC −TO): 0.25 µg/mL (≈ 0.535 µM)
Fold (−TO/+TO) (S. aureus Mu50; Mu50, 8 μg/ml of tomatidine): 8 fold
MIC (S. aureus Mu50; Mu50, aac(6′)-aph(2″), ant(4′)-Ia, 8 μg/ml of tomatidine, read-out: MIC +TO): 128 µg/mL (≈ 274 µM)
MIC (S. aureus Mu50; Mu50, aac(6′)-aph(2″), ant(4′)-Ia, absence of tomatidine, read-out: MIC −TO): 1020 µg/mL (≈ 2190 µM)
MIC (S. aureus Mu50; Mu50, Human (SSTI), MRSA, VISA, read-out: MIC): 1020 µg/mL (≈ 2190 µM)
Fold (−TO/+TO) (S. aureus CF6B-L; 8 μg/ml of tomatidine): 4-16 fold
MIC (S. aureus CF6B-L; aac(6′)-aph(2″), 8 μg/ml of tomatidine, read-out: MIC +TO): 16 to 64 µg/mL (≈ 34.2 to 137 µM)
MIC (S. aureus CF6B-L; aac(6′)-aph(2″), absence of tomatidine, read-out: MIC −TO): 256 µg/mL (≈ 548 µM)
MIC (S. aureus CF6B-L; [6]): 256 µg/mL (≈ 548 µM)
Fold (−TO/+TO) (S. aureus CF07-L; 8 μg/ml of tomatidine): 4-8 fold
MIC (S. aureus CF07-L; [4]): 0.06 to 0.12 µg/mL (≈ 0.128 to 0.257 µM)
MIC (S. aureus CF07-L; [6]): 0.5 to 1 µg/mL (≈ 1.07 to 2.14 µM)
MIC (S. aureus CF07-L; [5]): 0.5 to 1 µg/mL (≈ 1.07 to 2.14 µM)
Fold (−TO/+TO) (S. aureus CF7A-L; 8 μg/ml of tomatidine): 2-8 fold
MIC (S. aureus CF7A-L; CF7AL, ant(4′)-Ia, 8 μg/ml of tomatidine, read-out: MIC +TO): 128 to 512 µg/mL (≈ 274 to 1100 µM)
MIC (S. aureus CF7A-L; CF7AL, ant(4′)-Ia, absence of tomatidine, read-out: MIC −TO): 1020 µg/mL (≈ 2190 µM)
MIC (S. aureus CF7A-L; [7]): 1020 µg/mL (≈ 2190 µM)
Fold (−TO/+TO) (S. aureus ATCC 29213 [2]; ATCC 29123, 8 μg/ml of tomatidine): 4-16 fold
Fold (−TO/+TO) (S. aureus ATCC 29213 [2]; ATCC 29213, tomatidine at 8 μg/ml): 4-8 fold
MIC (S. aureus ATCC 29213 [2]; ATCC 29123 / ATCC 29213, ATCC 29123, 8 μg/ml of tomatidine, read-out: MIC +TO): 0.03 to 0.06 µg/mL (≈ 0.0642 to 0.128 µM)
MIC (S. aureus ATCC 29213 [2]; ATCC 29123 / ATCC 29213, ATCC 29123, absence of tomatidine, read-out: MIC −TO): 0.25 to 0.5 µg/mL (≈ 0.535 to 1.07 µM)
MIC (S. aureus ATCC 29213 [2]; ATCC29213, ATCC 29213, Human (SSTI), read-out: MIC): 0.25 to 0.5 µg/mL (≈ 0.535 to 1.07 µM)
MIC (S. aureus ATCC 29213 [2]; ATCC29213, ATCC 29213, absence of tomatidine, read-out: MIC −TO): 0.25 to 0.5 µg/mL (≈ 0.535 to 1.07 µM)
MIC (S. aureus ATCC 29213 [2]; ATCC29213, ATCC 29213, presence of tomatidine at 8 μg/ml, read-out: MIC +TO): 0.06 µg/mL
Fold (−TO/+TO) (S. aureus CF4B-L; 8 μg/ml of tomatidine): 4-16 fold
MIC (S. aureus CF4B-L; [4]): 0.06 to 0.12 µg/mL (≈ 0.128 to 0.257 µM)
MIC (S. aureus CF4B-L; [6]): 0.5 to 1 µg/mL (≈ 1.07 to 2.14 µM)
MIC (S. aureus CF4B-L; [5]): 0.5 to 1 µg/mL (≈ 1.07 to 2.14 µM)
Fold (−TO/+TO) (S. aureus Sa228c; Sa228c, 8 μg/ml of tomatidine): 4-8 fold
MIC (S. aureus Sa228c; read-out: MIC +TO): 128 to 256 µg/mL (≈ 274 to 548 µM)
MIC (S. aureus Sa228c; read-out: MIC −TO): 1020 µg/mL (≈ 2190 µM)
Fold (−TO/+TO) (S. aureus ATCC BAA-41; ATCC BAA-41, 8 μg/ml of tomatidine): 4 fold
MIC (S. aureus ATCC BAA-41; ATCC BAA-41 / MRSA, ATCC BAA-41, Human (HA), MRSA, read-out: MIC): 512 µg/mL (≈ 1100 µM)
MIC (S. aureus ATCC BAA-41; ATCCBAA41, ATCC BAA-41, ant(4′)-Ia, 8 μg/ml of tomatidine, read-out: MIC +TO): 128 µg/mL (≈ 274 µM)
MIC (S. aureus ATCC BAA-41; ATCCBAA41, ATCC BAA-41, ant(4′)-Ia, absence of tomatidine, read-out: MIC −TO): 512 µg/mL (≈ 1100 µM)
MIC (S. aureus ATCC 29213 [3]; tomatidine 0 μg/ml): 0.25 to 0.5 µg/mL
MIC (S. aureus ATCC 29213 [3]; tomatidine 0.06 μg/ml): 0.25 µg/mL
MIC (S. aureus ATCC 29213 [3]; tomatidine 0.12 μg/ml): 0.03 to 0.12 µg/mL
MIC (S. aureus ATCC 29213 [3]; tomatidine 0.25 μg/ml): 0.03 to 0.06 µg/mL
MIC (S. aureus ATCC 29213 [3]; tomatidine 0.5 μg/ml): 0.03 µg/mL
MIC (S. aureus ATCC 29213 [3]; tomatidine 1 μg/ml): 0.03 to 0.06 µg/mL
MIC (S. aureus ATCC 29213 [3]; tomatidine 2 μg/ml): 0.03 to 0.06 µg/mL
MIC (S. aureus ATCC 29213 [3]; tomatidine 4 μg/ml): 0.03 to 0.06 µg/mL
MIC (S. aureus ATCC 29213 [3]; tomatidine 8 μg/ml): 0.06 µg/mL
FIC index (S. aureus ATCC 29213 [3]; aminoglycoside with tomatidine, tomatidine MIC considered 32 μg/ml, values overestimated): ≦0.133
Fold (−TO/+TO) (S. aureus CF35A-L; 8 μg/ml of tomatidine): 8-16 fold
MIC (S. aureus CF35A-L; CF35AL, 8 μg/ml of tomatidine, read-out: MIC +TO): 0.06 µg/mL (≈ 0.128 µM)
MIC (S. aureus CF35A-L; CF35AL, absence of tomatidine, read-out: MIC −TO): 0.5 to 1 µg/mL (≈ 1.07 to 2.14 µM)
MIC (S. aureus CF35A-L; [7]): 0.5 to 1 µg/mL (≈ 1.07 to 2.14 µM)
Fold (−TO/+TO) (S. aureus ATCC 43300; 8 μg/ml of tomatidine): 4-8 fold
MIC (S. aureus ATCC 43300; ATCC 43300 / MRSA, Human (HA), MRSA, read-out: MIC): 512 to 1020 µg/mL (≈ 1100 to 2190 µM)
MIC (S. aureus ATCC 43300; ATCC43300, 8 μg/ml of tomatidine, read-out: MIC +TO): 128 µg/mL (≈ 274 µM)
MIC (S. aureus ATCC 43300; ATCC43300, absence of tomatidine, read-out: MIC −TO): 512 to 1020 µg/mL (≈ 1100 to 2190 µM)
Fold (−TO/+TO) (S. aureus CF2A-L; 8 μg/ml of tomatidine): 8-16 fold
MIC (S. aureus CF2A-L; [4]): 0.06 to 0.12 µg/mL (≈ 0.128 to 0.257 µM)
MIC (S. aureus CF2A-L; [6]): 1 µg/mL (≈ 2.14 µM)
MIC (S. aureus CF2A-L; [5]): 1 µg/mL (≈ 2.14 µM)
Fold (−TO/+TO) (S. aureus 8325-4; 8 μg/ml of tomatidine): 4 fold
MIC (S. aureus 8325-4; [4]): 0.03 to 0.06 µg/mL (≈ 0.0642 to 0.128 µM)
MIC (S. aureus 8325-4; Laboratory strain, read-out: MIC): 0.12 to 0.25 µg/mL (≈ 0.257 to 0.535 µM)
MIC (S. aureus 8325-4; [5]): 0.12 to 0.25 µg/mL (≈ 0.257 to 0.535 µM)
Fold (−TO/+TO) (S. aureus Newman; 8 μg/ml of tomatidine): 2-8 fold
MIC (S. aureus Newman; [4]): 0.06 to 0.12 µg/mL (≈ 0.128 to 0.257 µM)
MIC (S. aureus Newman; Human (Osteo), read-out: MIC): 0.25 to 0.5 µg/mL (≈ 0.535 to 1.07 µM)
MIC (S. aureus Newman; [5]): 0.25 to 0.5 µg/mL (≈ 0.535 to 1.07 µM)
Fold (−TO/+TO) (S. aureus CF8E-L; 8 μg/ml of tomatidine): 4 fold
MIC (S. aureus CF8E-L; [4]): 0.25 µg/mL (≈ 0.535 µM)
MIC (S. aureus CF8E-L; [6]): 1 µg/mL (≈ 2.14 µM)
MIC (S. aureus CF8E-L; [5]): 1 µg/mL (≈ 2.14 µM)
